Laboratory results reported in PMC4854315, “Discovery of a novel allosteric inhibitor-binding site in ERK5: comparison with the canonical kinase hinge ATP-binding site” (Acta Crystallographica. Section D, Structural Biology, 2016).

Columns and labels:
Assay in all cases: Z'-LYTE kinase panel
Assay type in all cases: biochemical
INSRR (IRR) = target: T1, INSRR (IRR) (Homo sapiens, UniProt P14616)
T1 construct: purchased ThermoFisher (SelectScreen, Z'-LYTE)
Protocol: (§1) Compounds 2, 3 and 5 were tested for activity against the 225 kinases in the ThermoFisher standard kinase panel. The standard Z′-LYTE assay protocol (ThermoFisher) was used to measure the percentage inhibition at 10 µM compound concentration (details are provided in the supporting information).

TEK (Tie2) = target: T2, TEK (Tie2) (Homo sapiens, UniProt Q02763)
T2 construct: purchased ThermoFisher (SelectScreen, Z'-LYTE)
Protocol: as §1

KDR (VEGFR2) = target: T3, KDR (VEGFR2) (Homo sapiens, UniProt P35968)
T3 construct: purchased ThermoFisher (SelectScreen, Z'-LYTE)
Protocol: as §1

FLT3 = target: T4, FLT3 (Homo sapiens, UniProt P36888)
T4 construct: purchased ThermoFisher (SelectScreen, Z'-LYTE)
T4 sequence (P36888 27-993): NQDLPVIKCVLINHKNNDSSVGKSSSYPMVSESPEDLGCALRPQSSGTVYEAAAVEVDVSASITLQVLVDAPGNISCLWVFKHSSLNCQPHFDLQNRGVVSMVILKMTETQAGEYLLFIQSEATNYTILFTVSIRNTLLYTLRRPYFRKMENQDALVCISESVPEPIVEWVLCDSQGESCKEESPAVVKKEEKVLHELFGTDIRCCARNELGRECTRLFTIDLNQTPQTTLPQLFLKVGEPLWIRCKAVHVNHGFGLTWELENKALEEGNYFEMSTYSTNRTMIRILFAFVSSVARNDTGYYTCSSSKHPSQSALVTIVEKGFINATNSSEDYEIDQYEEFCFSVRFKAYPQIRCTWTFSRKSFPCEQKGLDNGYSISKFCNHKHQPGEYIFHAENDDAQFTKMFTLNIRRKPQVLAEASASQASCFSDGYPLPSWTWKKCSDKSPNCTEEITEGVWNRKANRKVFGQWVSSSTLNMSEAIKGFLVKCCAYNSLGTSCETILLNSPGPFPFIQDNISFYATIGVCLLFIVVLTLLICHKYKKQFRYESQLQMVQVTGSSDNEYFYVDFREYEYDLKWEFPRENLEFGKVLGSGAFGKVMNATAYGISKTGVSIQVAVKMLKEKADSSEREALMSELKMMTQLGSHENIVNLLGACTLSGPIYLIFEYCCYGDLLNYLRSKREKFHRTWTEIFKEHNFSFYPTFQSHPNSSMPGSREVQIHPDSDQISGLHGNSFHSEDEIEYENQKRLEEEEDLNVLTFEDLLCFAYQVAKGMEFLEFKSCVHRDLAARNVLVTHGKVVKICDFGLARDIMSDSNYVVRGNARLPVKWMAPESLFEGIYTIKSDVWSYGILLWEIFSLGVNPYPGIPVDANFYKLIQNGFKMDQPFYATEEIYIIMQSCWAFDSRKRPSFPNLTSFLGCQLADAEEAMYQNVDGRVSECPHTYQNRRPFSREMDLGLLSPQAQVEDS
Protocol: as §1

PDK1 Direct = target: T5, PDK1 Direct (Homo sapiens, UniProt O15530)
T5 construct: purchased ThermoFisher (SelectScreen, Z'-LYTE)
T5 sequence (O15530 1-556): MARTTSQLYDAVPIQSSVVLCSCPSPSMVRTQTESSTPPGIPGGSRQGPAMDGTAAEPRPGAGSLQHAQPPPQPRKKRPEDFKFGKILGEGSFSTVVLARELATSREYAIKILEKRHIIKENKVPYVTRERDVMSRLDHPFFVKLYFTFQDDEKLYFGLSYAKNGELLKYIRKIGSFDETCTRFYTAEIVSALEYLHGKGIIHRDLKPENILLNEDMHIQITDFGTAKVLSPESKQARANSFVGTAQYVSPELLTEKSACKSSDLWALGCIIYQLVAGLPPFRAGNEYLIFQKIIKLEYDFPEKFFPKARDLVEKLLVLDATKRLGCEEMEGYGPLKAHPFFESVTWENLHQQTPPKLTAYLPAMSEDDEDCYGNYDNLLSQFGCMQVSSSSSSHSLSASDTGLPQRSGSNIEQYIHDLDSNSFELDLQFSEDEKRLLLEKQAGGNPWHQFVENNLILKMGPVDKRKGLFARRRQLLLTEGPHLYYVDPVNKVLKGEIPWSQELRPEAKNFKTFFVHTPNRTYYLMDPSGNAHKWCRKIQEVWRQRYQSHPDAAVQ
Protocol: as §1

JAK2 JH1 JH2 = target: T6, JAK2 JH1 JH2 (Homo sapiens, UniProt O60674)
T6 construct: JAK2 JH1 JH2; purchased ThermoFisher (SelectScreen, Z'-LYTE)
Protocol: as §1

CSK = target: T7, CSK (Homo sapiens, UniProt P41240)
T7 construct: purchased ThermoFisher (SelectScreen, Z'-LYTE)
Protocol: as §1

KIT = target: T8, KIT (Homo sapiens, UniProt P10721)
T8 construct: purchased ThermoFisher (SelectScreen, Z'-LYTE)
Protocol: as §1

FES (FPS) = target: T9, FES (FPS) (Homo sapiens, UniProt P07332)
T9 construct: purchased ThermoFisher (SelectScreen, Z'-LYTE)
Protocol: as §1

FGFR4 = target: T10, FGFR4 (Homo sapiens, UniProt P22455)
T10 construct: purchased ThermoFisher (SelectScreen, Z'-LYTE)
Protocol: as §1

PDK1 = target: T11, PDK1 (Homo sapiens, UniProt O15530); details: 10 µM compound; ATP 100
T11 construct: purchased ThermoFisher (SelectScreen, Z'-LYTE)
T11 sequence (O15530 1-556): T5 sequence (O15530 1-556)
Protocol: as §1

LTK (TYK1) = target: T12, LTK (TYK1) (Homo sapiens, UniProt P29376)
T12 construct: purchased ThermoFisher (SelectScreen, Z'-LYTE)
Protocol: as §1

AMPK A1/B1/G1 = target: T13, AMPK A1/B1/G1 (Homo sapiens, UniProt Q13131)
T13 construct: purchased ThermoFisher (SelectScreen, Z'-LYTE)
Protocol: as §1

MKNK1 (MNK1) = target: T14, MKNK1 (MNK1) (Homo sapiens, UniProt Q9BUB5)
T14 construct: purchased ThermoFisher (SelectScreen, Z'-LYTE)
Protocol: as §1

DNA-PK = target: T15, DNA-PK (Homo sapiens, UniProt P78527)
T15 construct: purchased ThermoFisher (SelectScreen, Z'-LYTE)
Protocol: as §1

PTK2B (FAK2) = target: T16, PTK2B (FAK2) (Homo sapiens, UniProt Q14289)
T16 construct: purchased ThermoFisher (SelectScreen, Z'-LYTE)
Protocol: as §1

T16 sequence (Q14289 whole entry): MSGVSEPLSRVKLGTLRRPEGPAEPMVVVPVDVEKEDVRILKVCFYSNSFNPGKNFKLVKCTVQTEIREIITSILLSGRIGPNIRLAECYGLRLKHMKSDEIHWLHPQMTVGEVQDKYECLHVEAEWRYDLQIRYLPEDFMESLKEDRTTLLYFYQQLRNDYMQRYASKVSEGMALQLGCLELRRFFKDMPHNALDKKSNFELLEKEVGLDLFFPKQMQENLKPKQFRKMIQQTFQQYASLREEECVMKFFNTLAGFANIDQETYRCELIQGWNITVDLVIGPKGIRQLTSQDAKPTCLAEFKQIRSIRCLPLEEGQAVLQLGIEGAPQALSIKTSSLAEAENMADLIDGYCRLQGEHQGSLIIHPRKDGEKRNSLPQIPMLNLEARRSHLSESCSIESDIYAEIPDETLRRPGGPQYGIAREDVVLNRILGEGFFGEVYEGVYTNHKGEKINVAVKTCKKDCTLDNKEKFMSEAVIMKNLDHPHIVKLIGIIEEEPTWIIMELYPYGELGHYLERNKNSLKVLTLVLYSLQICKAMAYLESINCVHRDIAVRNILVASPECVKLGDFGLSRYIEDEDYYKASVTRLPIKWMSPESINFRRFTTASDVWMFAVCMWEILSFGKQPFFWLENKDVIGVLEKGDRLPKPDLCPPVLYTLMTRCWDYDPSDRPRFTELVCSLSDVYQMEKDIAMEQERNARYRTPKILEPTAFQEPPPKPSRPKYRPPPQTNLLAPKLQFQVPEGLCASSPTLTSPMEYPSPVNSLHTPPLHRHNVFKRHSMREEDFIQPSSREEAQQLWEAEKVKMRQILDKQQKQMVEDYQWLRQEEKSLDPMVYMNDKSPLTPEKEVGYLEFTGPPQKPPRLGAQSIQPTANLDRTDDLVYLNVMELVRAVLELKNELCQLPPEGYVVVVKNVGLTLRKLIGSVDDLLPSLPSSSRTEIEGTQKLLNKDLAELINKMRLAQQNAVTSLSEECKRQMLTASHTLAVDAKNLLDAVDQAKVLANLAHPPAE
T2 sequence (Q02763 23-1124): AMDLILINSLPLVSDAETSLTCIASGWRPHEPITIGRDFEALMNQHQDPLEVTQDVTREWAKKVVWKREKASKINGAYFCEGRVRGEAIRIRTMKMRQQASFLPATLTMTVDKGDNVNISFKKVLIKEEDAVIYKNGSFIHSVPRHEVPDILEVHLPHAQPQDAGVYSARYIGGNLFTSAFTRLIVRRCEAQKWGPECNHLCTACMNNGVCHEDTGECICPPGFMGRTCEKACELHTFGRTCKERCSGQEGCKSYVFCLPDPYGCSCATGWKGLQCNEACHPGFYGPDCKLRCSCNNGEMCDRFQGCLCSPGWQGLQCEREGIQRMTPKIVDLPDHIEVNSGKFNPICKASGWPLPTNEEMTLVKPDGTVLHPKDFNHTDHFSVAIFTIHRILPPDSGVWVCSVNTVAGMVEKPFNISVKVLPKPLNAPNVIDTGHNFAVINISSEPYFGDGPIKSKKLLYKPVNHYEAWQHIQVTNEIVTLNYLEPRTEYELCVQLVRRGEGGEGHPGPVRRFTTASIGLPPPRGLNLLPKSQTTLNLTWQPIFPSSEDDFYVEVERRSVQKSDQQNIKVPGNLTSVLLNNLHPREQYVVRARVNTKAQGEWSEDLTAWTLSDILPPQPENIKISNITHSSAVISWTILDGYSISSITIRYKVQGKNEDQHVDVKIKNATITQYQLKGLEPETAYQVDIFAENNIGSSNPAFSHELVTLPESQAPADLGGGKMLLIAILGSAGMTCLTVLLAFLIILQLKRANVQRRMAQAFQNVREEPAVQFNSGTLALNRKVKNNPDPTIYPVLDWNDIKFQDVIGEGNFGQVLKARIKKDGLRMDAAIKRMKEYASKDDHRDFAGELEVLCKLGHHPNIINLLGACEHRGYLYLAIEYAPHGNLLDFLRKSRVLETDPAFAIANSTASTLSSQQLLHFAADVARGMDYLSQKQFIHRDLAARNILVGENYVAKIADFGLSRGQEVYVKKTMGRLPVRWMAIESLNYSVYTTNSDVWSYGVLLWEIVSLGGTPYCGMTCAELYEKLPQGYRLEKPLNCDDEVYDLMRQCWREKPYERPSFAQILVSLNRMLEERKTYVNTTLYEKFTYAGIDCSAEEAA
T9 sequence (P07332 whole entry): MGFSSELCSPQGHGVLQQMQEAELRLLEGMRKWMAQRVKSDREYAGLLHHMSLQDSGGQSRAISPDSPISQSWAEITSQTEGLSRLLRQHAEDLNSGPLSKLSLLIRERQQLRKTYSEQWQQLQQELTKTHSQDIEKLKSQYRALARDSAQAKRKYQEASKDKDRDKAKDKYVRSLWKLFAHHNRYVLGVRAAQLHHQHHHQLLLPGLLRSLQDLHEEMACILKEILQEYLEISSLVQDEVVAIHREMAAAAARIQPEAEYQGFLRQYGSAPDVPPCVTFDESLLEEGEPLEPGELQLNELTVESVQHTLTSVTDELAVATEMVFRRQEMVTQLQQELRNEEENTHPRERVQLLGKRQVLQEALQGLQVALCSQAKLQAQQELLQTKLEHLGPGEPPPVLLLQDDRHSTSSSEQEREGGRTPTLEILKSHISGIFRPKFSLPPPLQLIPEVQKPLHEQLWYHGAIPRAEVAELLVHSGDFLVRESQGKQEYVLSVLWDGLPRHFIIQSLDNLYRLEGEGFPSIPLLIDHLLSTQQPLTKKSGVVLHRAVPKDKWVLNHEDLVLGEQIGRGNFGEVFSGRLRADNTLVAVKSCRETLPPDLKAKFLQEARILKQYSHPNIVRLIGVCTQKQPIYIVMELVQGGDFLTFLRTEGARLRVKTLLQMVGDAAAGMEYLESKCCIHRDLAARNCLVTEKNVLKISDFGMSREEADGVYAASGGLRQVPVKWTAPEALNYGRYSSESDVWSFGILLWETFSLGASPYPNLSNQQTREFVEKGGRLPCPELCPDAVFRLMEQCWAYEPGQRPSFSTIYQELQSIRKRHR
T8 sequence (P10721 26-976): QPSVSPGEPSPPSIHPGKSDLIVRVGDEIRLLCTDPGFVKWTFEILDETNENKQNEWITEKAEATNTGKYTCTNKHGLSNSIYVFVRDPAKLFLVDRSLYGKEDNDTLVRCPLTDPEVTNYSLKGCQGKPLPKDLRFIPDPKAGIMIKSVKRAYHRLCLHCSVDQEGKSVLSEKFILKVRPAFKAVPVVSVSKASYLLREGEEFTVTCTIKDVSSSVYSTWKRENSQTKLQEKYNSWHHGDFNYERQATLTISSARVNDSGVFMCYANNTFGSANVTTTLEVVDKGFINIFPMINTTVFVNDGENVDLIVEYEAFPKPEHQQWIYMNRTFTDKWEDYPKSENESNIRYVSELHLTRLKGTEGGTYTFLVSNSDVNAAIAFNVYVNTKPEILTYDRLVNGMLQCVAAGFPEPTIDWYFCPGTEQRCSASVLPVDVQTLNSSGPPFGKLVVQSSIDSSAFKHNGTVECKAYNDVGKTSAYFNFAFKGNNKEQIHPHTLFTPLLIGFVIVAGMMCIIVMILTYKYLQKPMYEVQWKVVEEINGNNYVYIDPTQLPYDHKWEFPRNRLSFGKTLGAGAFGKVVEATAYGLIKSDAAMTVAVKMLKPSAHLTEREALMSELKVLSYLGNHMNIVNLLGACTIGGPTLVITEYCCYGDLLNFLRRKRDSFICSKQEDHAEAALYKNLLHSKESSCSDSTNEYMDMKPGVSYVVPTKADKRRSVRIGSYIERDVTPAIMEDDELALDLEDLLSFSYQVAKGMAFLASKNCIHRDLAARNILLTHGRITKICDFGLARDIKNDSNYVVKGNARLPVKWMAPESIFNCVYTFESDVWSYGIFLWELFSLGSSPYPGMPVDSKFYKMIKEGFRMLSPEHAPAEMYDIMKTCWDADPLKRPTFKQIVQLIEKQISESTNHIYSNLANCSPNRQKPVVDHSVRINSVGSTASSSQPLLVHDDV
T14 sequence (Q9BUB5 whole entry): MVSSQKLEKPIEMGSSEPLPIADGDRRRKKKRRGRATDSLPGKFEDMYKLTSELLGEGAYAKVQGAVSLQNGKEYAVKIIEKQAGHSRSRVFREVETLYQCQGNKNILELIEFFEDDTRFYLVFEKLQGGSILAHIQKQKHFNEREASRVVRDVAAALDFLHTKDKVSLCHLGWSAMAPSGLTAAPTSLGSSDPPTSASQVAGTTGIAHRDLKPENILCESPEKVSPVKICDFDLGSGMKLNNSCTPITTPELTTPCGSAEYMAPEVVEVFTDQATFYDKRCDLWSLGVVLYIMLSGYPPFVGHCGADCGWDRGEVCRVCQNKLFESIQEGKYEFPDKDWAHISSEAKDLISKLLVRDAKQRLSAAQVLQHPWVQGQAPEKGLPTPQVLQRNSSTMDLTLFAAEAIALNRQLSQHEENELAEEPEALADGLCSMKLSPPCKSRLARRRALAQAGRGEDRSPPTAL
T7 sequence (P41240 whole entry): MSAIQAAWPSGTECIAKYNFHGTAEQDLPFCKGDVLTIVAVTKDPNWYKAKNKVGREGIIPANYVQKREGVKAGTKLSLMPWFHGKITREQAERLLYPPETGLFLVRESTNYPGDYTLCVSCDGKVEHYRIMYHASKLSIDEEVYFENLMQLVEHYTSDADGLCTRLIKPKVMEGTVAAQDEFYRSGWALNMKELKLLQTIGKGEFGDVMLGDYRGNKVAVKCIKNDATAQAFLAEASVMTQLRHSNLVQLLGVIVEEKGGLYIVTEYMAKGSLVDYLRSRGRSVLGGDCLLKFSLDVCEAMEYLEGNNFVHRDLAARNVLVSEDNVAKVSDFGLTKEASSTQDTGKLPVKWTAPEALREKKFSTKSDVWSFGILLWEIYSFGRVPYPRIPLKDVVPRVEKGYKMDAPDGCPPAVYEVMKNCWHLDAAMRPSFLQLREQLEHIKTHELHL

| Molecule | inhibition at 10 µM (INSRR (IRR)) [%] | inhibition at 10 µM (TEK (Tie2)) [%] | inhibition at 10 µM (KDR (VEGFR2)) [%] | inhibition at 10 µM (FLT3) [%] | inhibition at 10 µM (PDK1 Direct) [%] | inhibition at 10 µM (JAK2 JH1 JH2) [%] | inhibition at 10 µM (CSK) [%] | inhibition at 10 µM (KIT) [%] | inhibition at 10 µM (FES (FPS)) [%] | inhibition at 10 µM (FGFR4) [%] | inhibition at 10 µM (PDK1) [%] | inhibition at 10 µM (LTK (TYK1)) [%] | inhibition at 10 µM (AMPK A1/B1/G1) [%] | inhibition at 10 µM (MKNK1 (MNK1)) [%] | inhibition at 10 µM (DNA-PK) [%] | inhibition at 10 µM (PTK2B (FAK2)) [%] | further results |
| --- | --- | --- | --- | --- | --- | --- | --- | --- | --- | --- | --- | --- | --- | --- | --- | --- | --- |
| Cc1ncc(-c2nc(Nc3ccc(C(=O)NCCN4CCCCC4)cc3)ncc2F)n1C(C)C [Compound 3] | 105 | 73 | 100 | 101 | 89 | 76 | 29 | 31 | 106 | 19 | 50 | 73 | 95 | 68 | 33 | 94 | – |
| Cc1cc(Nc2nc(N)nn2C(=O)NC(C)C)ccc1Cl [Compound 5] | 5.63 | 40 | 59 | 55 | -1.67 | 25 | 16 | 11 | 9 | 10 | 8 | 18 | 23 | 7 | 13 | 23 | – |
| XMD8-92 [Compound 2, reference compound] | – | – | – | – | – | – | – | – | – | – | – | – | – | – | – | – | INSRR (IRR) % Inhibition (INSRR (IRR); 10 µM compound, ATP Km app): 21%; TEK (Tie2) % Inhibition (TEK (Tie2); 10 µM compound, ATP Km app): 6.54%; KDR (VEGFR2) % Inhibition (KDR (VEGFR2); 10 µM compound, ATP Km app): 81%; FLT3 % Inhibition (FLT3; 10 µM compound, ATP Km app): 90%; PDK1 Direct % Inhibition (PDK1 Direct; 10 µM compound, ATP Km app): -15%; JAK2 JH1 JH2 % Inhibition (JAK2 JH1 JH2; 10 µM compound, ATP Km app): 52%; CSK % Inhibition (CSK; 10 µM compound, ATP Km app): 11%; KIT % Inhibition (KIT; 10 µM compound, ATP Km app): -5.51%; FES (FPS) % Inhibition (FES (FPS); 10 µM compound, ATP Km app): 78%; FGFR4 % Inhibition (FGFR4; 10 µM compound, ATP Km app): 19%; PDK1 % Inhibition (PDK1): 21%; LTK (TYK1) % Inhibition (LTK (TYK1); 10 µM compound, ATP Km app): 24%; AMPK A1/B1/G1 % Inhibition (AMPK A1/B1/G1; 10 µM compound, ATP Km app): 55%; MKNK1 (MNK1) % Inhibition (MKNK1 (MNK1); 10 µM compound, ATP Km app): 3.65%; DNA-PK % Inhibition (DNA-PK; 10 µM compound, ATP Km app): 38%; PTK2B (FAK2) % Inhibition (PTK2B (FAK2); 10 µM compound, ATP Km app): 20% |
